Experimental data reported in US6288091A, “Antiherpes virus compounds and methods for their preparation and use” (Boehringer Ingelheim Ltd., priority 1999, dated 2001).
Where two headings read alike, the source gives them in different places.

Columns and labels:
HSV-1 helicase-primase = target: T1, HSV-1 helicase-primase (Human herpesvirus 1, UniProt P10189+P10236); assay: HSV-1 DNA-dependent ATPase assay (inhibition of HSV-1 helicase-primase); assay type: biochemical
T1 construct: made in house; host or cells: Sf21 insect cells triply infected with recombinant baculoviruses (UL5, UL8, UL52)
T1 sequence (P10192 whole entry): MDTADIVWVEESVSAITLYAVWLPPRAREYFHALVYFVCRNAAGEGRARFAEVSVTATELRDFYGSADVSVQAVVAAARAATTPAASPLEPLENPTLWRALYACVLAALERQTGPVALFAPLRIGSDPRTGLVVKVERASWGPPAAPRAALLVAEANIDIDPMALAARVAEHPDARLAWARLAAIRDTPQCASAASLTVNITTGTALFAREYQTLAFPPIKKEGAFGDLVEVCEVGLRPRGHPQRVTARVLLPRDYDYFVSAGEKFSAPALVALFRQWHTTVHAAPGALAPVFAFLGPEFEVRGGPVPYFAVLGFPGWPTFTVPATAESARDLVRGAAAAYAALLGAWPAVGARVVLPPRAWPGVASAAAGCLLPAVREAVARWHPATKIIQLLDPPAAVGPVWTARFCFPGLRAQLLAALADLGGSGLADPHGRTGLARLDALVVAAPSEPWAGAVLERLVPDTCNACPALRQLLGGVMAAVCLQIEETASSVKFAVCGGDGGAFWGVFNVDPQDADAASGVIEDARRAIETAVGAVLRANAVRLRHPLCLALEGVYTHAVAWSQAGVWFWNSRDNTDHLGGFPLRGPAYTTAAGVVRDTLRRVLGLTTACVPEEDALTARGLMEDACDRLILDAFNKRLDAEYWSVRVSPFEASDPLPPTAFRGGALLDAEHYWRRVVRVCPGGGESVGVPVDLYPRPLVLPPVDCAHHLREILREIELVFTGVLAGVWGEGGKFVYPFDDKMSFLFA
T1 sequence (P10236 whole entry): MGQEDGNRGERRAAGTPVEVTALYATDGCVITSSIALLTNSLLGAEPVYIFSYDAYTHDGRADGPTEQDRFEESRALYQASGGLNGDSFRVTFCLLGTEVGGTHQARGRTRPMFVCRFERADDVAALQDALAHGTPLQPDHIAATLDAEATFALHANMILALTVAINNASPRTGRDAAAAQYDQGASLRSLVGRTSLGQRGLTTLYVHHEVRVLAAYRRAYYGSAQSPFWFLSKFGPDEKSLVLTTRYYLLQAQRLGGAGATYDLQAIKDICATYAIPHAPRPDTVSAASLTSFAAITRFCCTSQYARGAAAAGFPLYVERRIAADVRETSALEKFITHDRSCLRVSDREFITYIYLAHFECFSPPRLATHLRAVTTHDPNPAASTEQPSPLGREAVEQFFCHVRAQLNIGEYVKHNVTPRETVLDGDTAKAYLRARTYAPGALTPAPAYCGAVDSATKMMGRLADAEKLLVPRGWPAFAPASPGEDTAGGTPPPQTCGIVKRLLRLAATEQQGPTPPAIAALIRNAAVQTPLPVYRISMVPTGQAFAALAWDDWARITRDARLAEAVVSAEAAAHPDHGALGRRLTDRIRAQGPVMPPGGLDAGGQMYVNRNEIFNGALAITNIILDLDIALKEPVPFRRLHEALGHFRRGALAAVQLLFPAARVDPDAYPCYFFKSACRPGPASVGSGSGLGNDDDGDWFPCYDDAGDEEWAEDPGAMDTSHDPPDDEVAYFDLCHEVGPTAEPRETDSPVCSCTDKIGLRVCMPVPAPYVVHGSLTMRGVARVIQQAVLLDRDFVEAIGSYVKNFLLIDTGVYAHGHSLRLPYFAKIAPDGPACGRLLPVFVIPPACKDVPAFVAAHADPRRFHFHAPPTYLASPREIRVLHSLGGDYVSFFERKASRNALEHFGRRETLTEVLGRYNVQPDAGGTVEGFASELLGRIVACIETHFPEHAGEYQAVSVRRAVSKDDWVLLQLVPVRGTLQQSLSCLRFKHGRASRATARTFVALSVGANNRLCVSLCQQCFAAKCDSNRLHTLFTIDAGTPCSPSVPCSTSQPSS
T1 sequence (P10189 whole entry): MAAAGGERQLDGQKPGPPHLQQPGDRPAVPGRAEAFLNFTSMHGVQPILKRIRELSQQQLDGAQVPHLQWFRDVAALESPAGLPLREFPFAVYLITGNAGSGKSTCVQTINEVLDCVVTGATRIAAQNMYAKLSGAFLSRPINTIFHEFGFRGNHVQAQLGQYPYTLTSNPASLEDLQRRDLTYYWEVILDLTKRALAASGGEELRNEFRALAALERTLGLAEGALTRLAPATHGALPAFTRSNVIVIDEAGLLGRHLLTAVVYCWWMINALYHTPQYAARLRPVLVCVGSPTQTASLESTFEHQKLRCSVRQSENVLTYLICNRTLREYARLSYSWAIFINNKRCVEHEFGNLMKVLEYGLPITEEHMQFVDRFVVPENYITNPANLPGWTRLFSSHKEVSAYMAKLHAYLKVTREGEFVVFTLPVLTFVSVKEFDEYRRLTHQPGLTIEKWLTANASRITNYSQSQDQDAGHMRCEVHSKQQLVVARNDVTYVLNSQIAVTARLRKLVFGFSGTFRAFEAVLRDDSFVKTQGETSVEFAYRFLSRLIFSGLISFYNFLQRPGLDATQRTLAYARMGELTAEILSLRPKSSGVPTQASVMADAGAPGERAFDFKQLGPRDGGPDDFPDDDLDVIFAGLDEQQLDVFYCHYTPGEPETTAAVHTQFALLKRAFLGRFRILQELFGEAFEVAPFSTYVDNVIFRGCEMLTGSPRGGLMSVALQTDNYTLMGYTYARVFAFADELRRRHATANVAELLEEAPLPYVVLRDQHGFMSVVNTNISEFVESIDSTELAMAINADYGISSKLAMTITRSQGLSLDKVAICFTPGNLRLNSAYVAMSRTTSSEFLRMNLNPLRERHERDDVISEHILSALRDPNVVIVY
How it was run: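 ATP hydrolysis was measured as inorganic phosphate (malachite green/molybdate, 650 nm) after 20 min at 34°. Reaction: 3 μg/mL purified Sf21-expressed UL5/UL8/UL52 helicase-primase, 25 μM single-stranded M13 DNA hybridized to 68-mer, 4 mM ATP, pH 7.5 HEPES buffer, 3.3% DMSO. Net absorbance change with and without inhibitor gave DNA-dependent ATPase activity.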

HCMV (strain AD169) = assay: Inhibition of HCMV replication, plaque reduction assay (PRA, Hs-68 cells); assay type: cell-based, Human Cytomegalovirus (HCMV); conditions: read-out: PRA CMV EC50
How it was run: (§1)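 Hs-68 monolayers (80–90% confluent) were infected with ~50 PFU HCMV AD169 for 2 h at 37°, then given compound in DMEM/5% inactivated FBS, refreshed after 4 days and kept 4 more days. Plaques were counted after formaldehyde fixation and crystal violet staining. EC50 derives from percent plaque reduction versus untreated wells.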

[1] = as above; assay type: cell-based, Human Cytomegalovirus (HCMV); conditions: human
How it was run: as §1

HSV-1 KOS = assay: Cutaneous HSV-1 infection in the SKH-1 hairless mouse model, oral administration; assay type: in vivo; conditions: Human alphaherpesvirus 1, Group 1 Table 1 entries, tid for five days, commencing three hours post infection, in 0.03 N aqueous HCl, read-out: ED50, reduction of viral pathology
Experimental: In addition to the above results, certain Group 1 compounds have been tested against cutaneous HSV-1 infection in the SKH-1 hairless mouse model (P. H. Lee et al., supra). In this instance, viral pathology was monitored using a subjective scoring system and infection was initiated by spreading a viral inoculum (HSV-1 KOS, 7.3×10^7 PFU) over punctured skin.
Still furthermore, oral doses of Entry No.29 of Group 1 at 50 mg/kg/day and 100 mg/kg/day were active in the preceding mouse model when treatment was initiated at 65 h post inoculation. Also, topical treatment of cutaneous HSV-2 infections, namely HG-52 or the acyclovir resistant HSV-2 strain VK-1 (C. S. Crumpacker, New Engl. J. Med., 1989, 320, 293) infections, in the mouse model with the above noted 3% w/w formulation of Entry No. 29 was therapeutically effective, producing a 58 to 72% reduction of viral pathology.

[2] = Human betaherpesvirus 5, AD169, Hs68, Group 1 Table 1 entries
[3] = Group 1 Table 1 entries, read-out: Cytotoxic at this concentration (footnote *, PRA CMV)
[4] = Group 1 Table 2 entries (Q = CH2)
[5] = Human betaherpesvirus 5, AD169, Hs68, Group 1 Table 2 entries
[6] = Group 1 Table 2 entries, read-out: Cytotoxic at this concentration (footnote, PRA CMV)

Row | SMILES | IC50 (HSV-1 helicase-primase; Group 1 Table 1 entries) [µM] | EC50 (HCMV (strain AD169); [2]) [µM] | MCC at 192 h [1, 3] [µM] | IC50 (HSV-1 helicase-primase; [4]) [µM] | EC50 (HCMV (strain AD169); [5]) [µM] | MCC at 192 h [1, 6] [µM] | ED50 (HSV-1 KOS) [mg/kg]
1 | Nc1nc(-c2ccc(NC(=O)CNCCCc3ccccc3)cc2)cs1 [Example 3] | 7.6 | > 14 | 14 |  |  |  | 
2 | Nc1nc(-c2ccc(NC(=O)CCNCc3cccc(F)c3)cc2)cs1 [Example 4] |  |  |  | 5.2 | > 3.7 | 3.7 | 
3 | Nc1nc(-c2ccc(NC(=O)CCN(Cc3ccccc3)C(=O)C3CCCCC3)cc2)cs1 [Example 8] |  |  |  | 1.7 | 13 | 13 | 
4 | C[C@H](NCC(=O)Nc1ccc(-c2csc(N)n2)cc1)c1ccccc1 [Example 10] | 6.9 | > 30 | 30 |  |  |  | 
5 | Nc1nc(-c2ccc(NC(=O)CCNC3Cc4ccccc4C3)cc2)cs1 [Example 10] |  |  |  | 21 | 14 | 14 | 
6 | Nc1nc(-c2ccc(NC(=O)CCN(Cc3ccccc3)C(=O)OCc3ccccc3)cc2)cs1 [Example 16] |  |  |  | 1.8 | 8 | 8 | 
7 | CN(CC(=O)Nc1ccc(-c2csc(N)n2)cc1)C(=O)c1ccncc1 [Example 22] | 5.9 | 110 | 110 |  |  |  | 
8 | Nc1nc(-c2ccc(NC(=O)CCNCC3CCCCC3)cc2)cs1 [Example 22] |  |  |  | 29 | > 6 | 6 | 
9 | CCCC(CCC)NCCC(=O)Nc1ccc(-c2csc(N)n2)cc1 [Example 23] |  |  |  | 45 | > 9 | 9 | 
10 | Nc1nc(-c2ccc(NC(=O)CN(Cc3ccccc3)C(=O)c3ccccn3)cc2)cs1 [Example 27] | 1 | > 36 | 36 |  |  |  | 
11 | Nc1nc(-c2ccc(NC(=O)CN(Cc3ccccc3)C(=O)c3ccncc3)cc2)cs1 [Example 29] | 0.24 | 27 |  |  |  |  | 56
12 | Nc1nc(-c2ccc(NC(=O)CN(Cc3ccccc3)C(=O)C3CCCC3)cc2)cs1 [Example 36] | 0.041 | 16 |  |  |  |  | 51
13 | Nc1nc(-c2ccc(NC(=O)CN(Cc3ccncc3)C(=O)C3CCCCC3)cc2)cs1 [Example 49, N-{2-{{4-(2-amino-4-thiazolyl)phenyl}amino}-2-oxoethyl}-N-(4-pyridinylmethyl)cyclohexanecarboxamide] | 0.037 | 23 |  |  |  |  | 129
14 | C[C@@H](c1ccccc1)N(CC(=O)Nc1ccc(-c2csc(N)n2)cc1)C(=O)c1ccncc1 [Example 58] | 0.19 | 30 |  |  |  |  | 31
15 | Nc1nc(-c2ccc(NC(=O)CN(CC3CCCCC3)C(=O)C3CCCC3)cc2)cs1 [Example 63] | 0.78 | > 21 | 21 |  |  |  | 
16 | CCCC(CCC)N(CC(=O)Nc1ccc(-c2csc(N)n2)cc1)C(=O)C1CCCCC1 [Example 82] | 0.62 | 7 | 7 |  |  |  | 
17 | Nc1nc(-c2ccc(NC(=O)CN(Cc3ccccc3)S(=O)(=O)c3ccccc3)cc2)cs1 [Example 97] | 0.31 | 15 |  |  |  |  | 
18 | CCC(CC)C(=O)N(CC(=O)Nc1ccc(-c2csc(N)n2)cc1)Cc1ccccc1 [Example 104] | 0.078 | > 18 | 18 |  |  |  | 
19 | CN(C)CCN(CC(=O)Nc1ccc(-c2csc(N)n2)cc1)C(=O)C1CCCCC1 [Example 140] | 48 | 29 |  |  |  |  | 
